Experimental data taken from patent US20260234161A1, “RIFABUTIN ANALOGS FOR THE TREATMENT OF BACTERIAL DISEASES” (BIOVERSYS AG, priority 2023, published 2026).
In brackets after ≈: the same amount, converted by molar mass.

Legend:
Format in all cases: cell-based
[1] = tested on: M. abscessus (ATCC 19977); assay: MIC by broth microdilution, M. abscessus in cation adjusted Mueller Hinton broth; settings: Mycobacteroides abscessus, ATCC19977, 96 h; ATCC 19977; cation adjusted Mueller Hinton broth without growth supplement; 30° C., 4 days; read-out: MIC M. abscessus MH
Method: (§1) MIC values were determined by broth microdilution method according to the CLSI guidelines with the following exceptions: MIC against A. baumannii was performed in RPMI medium supplemented with 10% FCS and MIC against M. abscessus was performed in Middlebrook 7H9 broth supplemented with Middlebrook ADC growth supplement (10%; see column “M. abscessus 7H9”). MIC forM abscessus was determined a second time in standard cation adjusted Mueller Hinton broth without growth supplement (see colum “M. abscessus MH”). All other MIC were performed in standard cation adjusted Mueller Hinton broth, supplemented with Middlebrook ADC growth supplement (5%) for the slow growing mycobacteria (M. xenopi, M. kansasii and M. avium).
(§2) The following procedure applies to all species tested, except forM xenopi. From a fresh culture plate (from overnight to several days depending on the bacteria), cells were resuspended in 0.9% (w/v) saline solution and bacterial inoculum was prepared in the respective testing medium with 5×10^5 CFU/mL. For M. xenopi, the inoculum was prepared from a fresh liquid culture (7H9+ADC). The appropriate volumes of a 10 mg/mL compound solution were directly dispensed in the 96-well assay plate using a digital dispenser to create two-fold dilution series from 32 to 0.002 μg/mL final concentration for A. baumannii and S. aureus; from 16 to 0.016 μg/mL for M. abscessus and M. avium; and from 1 to 6×10^−5 μg/mL for M. kansasii and M. xenopi. 100 μL of bacterial suspension was finally added to the compounds. Plates were covered and incubated without shaking at 35° C. for 20 hours for A. baumanii and S. aureus; at 30° C. for 4 days for M. abscessus; and at 37° C. for 7 days (at least) for M. kansasii (covered with aluminum foil to avoid light exposure), M. avium and M. xenopi. Every experiment contained an antibiotic as quality control. MIC was determined visually as the lowest concentration of a compound that prevents visible growth of the bacteria.
(§3) The in vitro activity of compounds described herein was determined against S. aureus (UAMS-1625 strain), A. baumannii (HUMC1 strain), M. abscessus (ATCC 19977), M. kansasii (ATCC 12478), M. avium (ATCC 25291), and M. xenopi (ATCC 19250).

[2] = tested on: A. baumannii (HUMC1 strain); assay: MIC by broth microdilution, A. baumannii (RPMI + 10% FCS); settings: Acinetobacter baumannii; HUMC1 strain; RPMI medium + 10% FCS; 35° C., 20 hours; read-out: MIC A. baumannii
Method: as §1, §2, §3

[3] = tested on: S. aureus (UAMS-1625 strain); assay: MIC by broth microdilution, S. aureus; settings: Staphylococcus aureus, 20 h, read-out: MIC S. aureus
Method: as §1, §2, §3

`CO[C@H]1/C=C/O[C@@]2(C)Oc3c(C)c(O)c4c(c3C2=O)C2=NC3(CCN(CC(C)C)CC3)NC2=C(NC(=O)/C(C)=C\C=C\[C@H](C)[C@H](O)[C@@H](C)[C@@H](O)[C@@H](C)[C@H](OC(=O)N2CCN(CCc3ccccc3)CC2)[C@@H]1C)C4=O` [Compound 46] was tested. Which MIC [1] did it give?
Its MIC is 0.5 µg/mL (≈ 0.49 µM).

What about the MIC [2] of the same compound?
The MIC was 0.25 µg/mL.

And the MIC [3]?
The MIC was 0.25 µg/mL (≈ 0.245 µM).

For `COCCN1CCN(C(=O)O[C@H]2[C@H](C)[C@H](O)[C@H](C)[C@@H](O)[C@@H](C)/C=C/C=C(/C)C(=O)NC3=C4NC5(CCN(CC(C)C)CC5)N=C4c4c(c(O)c(C)c5c4C(=O)[C@@](C)(O/C=C/[C@H](OC)[C@H]2C)O5)C3=O)CC1` [Compound 48], which MIC [1] is on record?
The MIC was 1 µg/mL (≈ 1.03 µM).

What about the MIC [2] of the same compound?
The MIC was at most 0.016 µg/mL.

What about the MIC [3] of the same compound?
Its MIC is 0.06 µg/mL (≈ 0.0615 µM).

Which MIC [1] does the source give for `CO[C@H]1/C=C/O[C@@]2(C)Oc3c(C)c(O)c4c(c3C2=O)C2=NC3(CCN(CC(C)C)CC3)NC2=C(NC(=O)/C(C)=C\C=C\[C@H](C)[C@H](O)[C@@H](C)[C@@H](O)[C@@H](C)[C@H](OC(=O)N2CCN(CC(C)(C)C)CC2)[C@@H]1C)C4=O` [Compound 49] here?
Its MIC is 0.125 µg/mL (≈ 0.127 µM).

What about the MIC [2] of the same compound?
The MIC was 1 µg/mL.

What about the MIC [3] of the same compound?
Its MIC is 0.5 µg/mL (≈ 0.506 µM).

With `CO[C@H]1/C=C/O[C@@]2(C)Oc3c(C)c(O)c4c(c3C2=O)C2=NC3(CCN(CC(C)C)CC3)NC2=C(NC(=O)/C(C)=C\C=C\[C@H](C)[C@H](O)[C@@H](C)[C@@H](O)[C@@H](C)[C@H](OC(=O)N2CCNCC2)[C@@H]1C)C4=O` [Compound 51] as the compound, how does the MIC [1] read?
The MIC was 4 µg/mL (≈ 4.36 µM).

What about the MIC [2] of the same compound?
Its MIC is at most 0.001 µg/mL.

What about the MIC [3] of the same compound?
Its MIC is 0.016 µg/mL (≈ 0.0174 µM).

How did the MIC [1] turn out when `CO[C@H]1/C=C/O[C@@]2(C)Oc3c(C)c(O)c4c(c3C2=O)C2=NC3(CCN(CC(C)C)CC3)NC2=C(NC(=O)/C(C)=C\C=C\[C@H](C)[C@H](O)[C@@H](C)[C@@H](O)[C@@H](C)[C@H](OC(=O)N2CCN(CCC(C)C)CC2)[C@@H]1C)C4=O` [Compound 52] was run?
Its MIC is 0.125 µg/mL (≈ 0.127 µM).

What about the MIC [2] of the same compound?
The MIC was 0.06 µg/mL.

And the MIC [3]?
Its MIC is 0.25 µg/mL (≈ 0.253 µM).

What does the source list for `CO[C@H]1/C=C/O[C@@]2(C)Oc3c(C)c(O)c4c(c3C2=O)C2=NC3(CCN(CC(C)C)CC3)NC2=C(NC(=O)/C(C)=C\C=C\[C@H](C)[C@H](O)[C@@H](C)[C@@H](O)[C@@H](C)[C@H](OC(=O)N2CCN(CC3CCOCC3)CC2)[C@@H]1C)C4=O` [Compound 53]?
MIC [1]: 0.125 µg/mL (≈ 0.123 µM); MIC [2]: 0.004 µg/mL; MIC [3]: 0.125 µg/mL (≈ 0.123 µM)

Which MIC [1] does the source give for `CO[C@H]1/C=C/O[C@@]2(C)Oc3c(C)c(O)c4c(c3C2=O)C2=NC3(CCN(CC(C)C)CC3)NC2=C(NC(=O)/C(C)=C\C=C\[C@H](C)[C@H](O)[C@@H](C)[C@@H](O)[C@@H](C)[C@H](OC(=O)N2CCN(CC(C)C)CC2)[C@@H]1C)C4=O` [Compound 54] here?
The MIC was 0.06 µg/mL (≈ 0.0617 µM).

What about the MIC [2] of the same compound?
The MIC was 0.03 µg/mL.

And the MIC [3]?
The MIC was 0.125 µg/mL (≈ 0.128 µM).

For `CO[C@H]1/C=C/O[C@@]2(C)Oc3c(C)c(O)c4c(c3C2=O)C2=NC3(CCN(CC(C)C)CC3)NC2=C(NC(=O)/C(C)=C\C=C\[C@H](C)[C@H](O)[C@@H](C)[C@@H](O)[C@@H](C)[C@H](OC(=O)N2CCN(Cc3ccco3)CC2)[C@@H]1C)C4=O` [Compound 55], which MIC [1] is on record?
The MIC was 2 µg/mL (≈ 2.01 µM).

And the MIC [2]?
The MIC was at most 0.016 µg/mL.

And the MIC [3]?
Its MIC is 0.125 µg/mL (≈ 0.125 µM).

What does the source list for `CO[C@H]1/C=C/O[C@@]2(C)Oc3c(C)c(O)c4c(c3C2=O)C2=NC3(CCN(CC(C)C)CC3)NC2=C(NC(=O)/C(C)=C\C=C\[C@H](C)[C@H](O)[C@@H](C)[C@@H](O)[C@@H](C)[C@H](OC(=O)N2CCN(c3nccs3)CC2)[C@@H]1C)C4=O` [Compound 57]?
MIC [1]: 0.5 µg/mL (≈ 0.5 µM); MIC [2]: 0.03 µg/mL; MIC [3]: 0.06 µg/mL (≈ 0.06 µM)

Which results are given for `CO[C@H]1/C=C/O[C@@]2(C)Oc3c(C)c(O)c4c(c3C2=O)C2=NC3(CCN(CC(C)C)CC3)NC2=C(NC(=O)/C(C)=C\C=C\[C@H](C)[C@H](O)[C@@H](C)[C@@H](O)[C@@H](C)[C@H](OC(=O)N2C[C@@H]3C[C@H]2CN3CC2CCCCC2)[C@@H]1C)C4=O` [Compound 58]?
MIC [1]: 0.125 µg/mL (≈ 0.122 µM); MIC [2]: 0.03 µg/mL; MIC [3]: 0.125 µg/mL (≈ 0.122 µM)

`CCCN1CCN(C(=O)O[C@H]2[C@H](C)[C@H](O)[C@H](C)[C@@H](O)[C@@H](C)/C=C/C=C(/C)C(=O)NC3=C4NC5(CCN(CC(C)C)CC5)N=C4c4c(c(O)c(C)c5c4C(=O)[C@@](C)(O/C=C/[C@H](OC)[C@H]2C)O5)C3=O)CC12CC2` [Compound 59] was tested. Which MIC [1] did it give?
Its MIC is 0.125 µg/mL (≈ 0.127 µM).

And the MIC [2]?
The MIC was 0.03 µg/mL.

And the MIC [3]?
The MIC was 0.25 µg/mL (≈ 0.254 µM).

Which results are given for `CO[C@H]1/C=C/O[C@@]2(C)Oc3c(C)c(O)c4c(c3C2=O)C2=NC3(CCN(CC(C)C)CC3)NC2=C(NC(=O)/C(C)=C\C=C\[C@H](C)[C@H](O)[C@@H](C)[C@@H](O)[C@@H](C)[C@H](OC(=O)N2CCCN(C3CCCC3)CC2)[C@@H]1C)C4=O` [Compound 60]?
MIC [1]: 0.25 µg/mL (≈ 0.25 µM); MIC [2]: ≤ 0.016 µg/mL; MIC [3]: 0.06 µg/mL (≈ 0.06 µM)
